# Results: patent publication US10813356B2, “Herbicidal composition comprising cinmethylin and dimethenamid” (BASF Agro B.V., priority 2015, dated 2020)
# Tests used:
# Details in all cases: 20 DAT
# ABUTH = assay: Greenhouse preemergence herbicidal activity; type: in vivo, Abutilon theophrasti
# Experimental: (§1) The test plants have been seeded, separately for each species, in plastic containers in sandy loamy soil containing 5% of organic matter.
# (§2) The containers were irrigated gently to promote germination and growth and subsequently covered with transparent plastic hoods until the plants had rooted.
# (§3) The plants have been cultivated due to their individual requirements at 10-25° C. and 20-35° C.
# (§4) The plants were irrigated due to their necessity.
# (§5) The racemic mixture (±)-2-exo-(2-Methylbenzyloxy)-1-methyl-4-isopropyl-7-oxabicyclo[2.2.1]heptane was used as herbicide A and formulated as emulsifiable concentrates with an active ingredient concentration of 50 g/l, 100 g/l or 750 g/l respectively.
# (§6) Dimethenamid-P was used as emulsifiable concentrate (EC) formulation having an active ingredient concentration of 720 g/l.
# (§7) In the following experiments, the herbicidal activity for the individual herbicidal compositions (solo and mixture applications) was assessed 20 days after treatment (DAT).
# (§8) The evaluation for the damage on undesired weeds caused by the chemical compositions was carried out using a scale from 0 to 100%, compared to the untreated control plants. Here, 0 means no damage and 100 means complete destruction of the plants.
# (§9) E=X+Y−(X·Y/100) where X=effect in percent using herbicide A at an application rate a; • Y=effect in percent using herbicide B at application rate b; • E=expected effect (in %) of herbicide A+herbicide B at application rates a+b.
# (§10) The value E corresponds to the effect (plant damage or injury) which is to be expected if the activity of the individual compounds is additive. If the observed effect is higher than the value E calculated according to the Colby equation, a synergistic effect is present.
# ALOMY = assay: Greenhouse preemergence herbicidal activity; type: in vivo, Alopecurus myosuroides
# Experimental: as §1, §2, §3, §4, §5, §6
# (§11) In the following experiments, the herbicidal activity for the individual herbicidal compositions (solo and mixture applications) was assessed 20 days after treatment (DAT). […]
# as §10
# AMBEL = assay: Greenhouse preemergence herbicidal activity; type: in vivo, Ambrosia elatior
# Experimental: as §1, §2, §3, §4, §5, §6, §11, §10
# ANTAR [1] = assay: Greenhouse preemergence herbicidal activity; type: in vivo, Anthemis arvensis
# Experimental: as §1, §2, §3, §4, §5, §6, §7, §8, §9, §10
# AVEFA = assay: Greenhouse preemergence herbicidal activity; type: in vivo, Avena fatua
# Experimental: as §1, §2, §3, §4, §5, §6, §7, §8, §9, §10
# GALAP = assay: Greenhouse preemergence herbicidal activity; type: in vivo, Galium aparine
# Experimental: as §1, §2, §3, §4, §5, §6, §7, §8, §9, §10
# HELAN = assay: Greenhouse preemergence herbicidal activity; type: in vivo, Helianthus annuus
# Experimental: as §1, §2, §3, §4, §5, §6, §11, §10
# POLCO = assay: Greenhouse preemergence herbicidal activity; type: in vivo, Polygonum convolvulus
# Experimental: as §1, §2, §3, §4, §5, §6, §7, §8, §9, §10
# SORHA = assay: Greenhouse preemergence herbicidal activity; type: in vivo, Sorghum halepense
# Experimental: as §1, §2, §3, §4, §5, §6, §7, §8, §9, §10
# SSYOF = assay: Greenhouse preemergence herbicidal activity; type: in vivo, Sisymbrium officinale
# Experimental: as §1, §2, §3, §4, §5, §6, §7, §8, §9, §10
# THLAR = assay: Greenhouse preemergence herbicidal activity; type: in vivo, Thlaspi arvense
# Experimental: as §1, §2, §3, §4, §5, §6, §7, §8, §9, §10
# ANTAR [2] = assay: Greenhouse postemergence herbicidal activity; type: in vivo, Anthemis arvensis
# Experimental: as §1
# (§12) For the post emergence treatment, the plants were first grown to the 2 leaf station (GS 12). Here, the herbicidal compositions were suspended or emulsified in water as distribution medium and sprayed using finely distributing nozzles.
# as §3, §4, §5, §6, §7, §8, §9, §10
# BRSNW = assay: Greenhouse postemergence herbicidal activity; type: in vivo, Brassica napus
# Experimental: as §1, §12, §3, §4, §5, §6, §11, §10
# [3] = solo Dimethenamid-P 125 g ai/ha
# [4] = solo Dimethenamid-P 250 g ai/ha
# [5] = solo Dimethenamid-P 62.5 g ai/ha
# [6] = solo Dimethenamid-P 37.5 g ai/ha
# [7] = solo Dimethenamid-P 150 g ai/ha
# [8] = solo Dimethenamid-P 300 g ai/ha
# [9] = solo Dimethenamid-P 500 g ai/ha
compound,measurement,setting,value
"COC[C@H](C)N(C(=O)CCl)c1c(C)csc1C [Dimethenamid-P, (S)-2-chloro-N-(2,4-dimethyl-3-thienyl)-N-(2-methoxy-1-methylethyl)acetamide]",herbicidal activity,ABUTH; [3],10%
same,herbicidal activity,ABUTH; [4],25%
same,herbicidal activity,ALOMY; [5],25%
same,herbicidal activity,AMBEL; [3],35%
same,herbicidal activity,ANTAR [1]; [6],20%
same,herbicidal activity,ANTAR [1]; [5],75%
same,herbicidal activity,ANTAR [1]; solo Dimethenamid-P 75 g ai/ha,50%
same,herbicidal activity,ANTAR [1]; [3],95%
same,herbicidal activity,ANTAR [1]; [7],85%
same,herbicidal activity,ANTAR [1]; [4],98%
same,herbicidal activity,ANTAR [1]; [8],90%
same,herbicidal activity,AVEFA; [6],0%
same,herbicidal activity,AVEFA; [5],0%
same,herbicidal activity,AVEFA; solo Dimethenamid-P 75 g ai/ha,0%
same,herbicidal activity,AVEFA; [3],25%
same,herbicidal activity,GALAP; [5],20%
same,herbicidal activity,GALAP; [7],70%
same,herbicidal activity,GALAP; [4],75%
same,herbicidal activity,GALAP; [8],75%
same,herbicidal activity,GALAP; [9],80%
same,herbicidal activity,HELAN; [9],30%
same,herbicidal activity,POLCO; [6],0%
same,herbicidal activity,POLCO; [5],0%
same,herbicidal activity,POLCO; solo Dimethenamid-P 75 g ai/ha,0%
same,herbicidal activity,POLCO; [3],0%
same,herbicidal activity,POLCO; [4],30%
same,herbicidal activity,POLCO; [9],60%
same,herbicidal activity,SORHA; [6],30%
same,herbicidal activity,SORHA; solo Dimethenamid-P 75 g ai/ha,70%
same,herbicidal activity,SSYOF; [5],0%
same,herbicidal activity,SSYOF; [3],70%
same,herbicidal activity,SSYOF; [4],98%
same,herbicidal activity,THLAR; [3],40%
same,herbicidal activity,THLAR; [4],70%
same,herbicidal activity,THLAR; [9],90%
same,herbicidal activity,ANTAR [2]; [6],0%
same,herbicidal activity,ANTAR [2]; solo Dimethenamid-P 75 g ai/ha,0%
same,herbicidal activity,ANTAR [2]; [7],35%
same,herbicidal activity,ANTAR [2]; [8],45%
same,herbicidal activity,BRSNW; solo Dimethenamid-P 75 g ai/ha,20%
(±)-2-exo-(2-Methylbenzyloxy)-1-methyl-4-isopropyl-7-oxabicyclo[2.2.1]heptane [herbicide A],herbicidal activity,ABUTH; solo herbicide A 62.5 g ai/ha,55%
same,herbicidal activity,ABUTH; solo herbicide A 125 g ai/ha,65%
same,herbicidal activity,ALOMY; solo herbicide A 31.25 g ai/ha,85%
same,herbicidal activity,AMBEL; solo herbicide A 62.5 g ai/ha,0%
same,herbicidal activity,ANTAR [1]; solo herbicide A 31.25 g ai/ha,0%
same,herbicidal activity,ANTAR [1]; solo herbicide A 250 g ai/ha,40%
same,herbicidal activity,ANTAR [1]; solo herbicide A 500 g ai/ha,65%
same,herbicidal activity,AVEFA; solo herbicide A 31.25 g ai/ha,0%
same,herbicidal activity,AVEFA; solo herbicide A 125 g ai/ha,50%
same,herbicidal activity,GALAP; solo herbicide A 31.25 g ai/ha,0%
same,herbicidal activity,GALAP; solo herbicide A 125 g ai/ha,20%
same,herbicidal activity,GALAP; solo herbicide A 250 g ai/ha,65%
same,herbicidal activity,GALAP; solo herbicide A 500 g ai/ha,80%
same,herbicidal activity,HELAN; solo herbicide A 125 g ai/ha,0%
same,herbicidal activity,POLCO; solo herbicide A 31.25 g ai/ha,0%
same,herbicidal activity,POLCO; solo herbicide A 62.5 g ai/ha,0%
same,herbicidal activity,POLCO; solo herbicide A 125 g ai/ha,0%
same,herbicidal activity,POLCO; solo herbicide A 250 g ai/ha,0%
same,herbicidal activity,SORHA; solo herbicide A 62.5 g ai/ha,80%
same,herbicidal activity,SORHA; solo herbicide A 125 g ai/ha,90%
same,herbicidal activity,SSYOF; solo herbicide A 31.25 g ai/ha,0%
same,herbicidal activity,SSYOF; solo herbicide A 62.5 g ai/ha,0%
same,herbicidal activity,SSYOF; solo herbicide A 125 g ai/ha,50%
same,herbicidal activity,THLAR; solo herbicide A 62.5 g ai/ha,65%
same,herbicidal activity,THLAR; solo herbicide A 125 g ai/ha,75%
same,herbicidal activity,THLAR; solo herbicide A 500 g ai/ha,90%
same,herbicidal activity,ANTAR [2]; solo herbicide A 62.5 g ai/ha,0%
same,herbicidal activity,ANTAR [2]; solo herbicide A 125 g ai/ha,0%
same,herbicidal activity,ANTAR [2]; solo herbicide A 250 g ai/ha,40%
same,herbicidal activity,ANTAR [2]; solo herbicide A 500 g ai/ha,65%
same,herbicidal activity,BRSNW; solo herbicide A 125 g ai/ha,0%
